Read-outs that look alike come from different tables or passages of the source.
Tests used:
[1] = system: TNF-α; assay: LPS-stimulated whole bovine blood assay, MSD cytokine detection; type: cell-based; conditions: LPS-stimulated bovine whole blood, read-out: TNF-α (IC50 μM)
Method: (§1) Therefore, a fresh whole bovine blood assay was developed with LPS as a stimulant (TLR-4 agonist) and with IL-1β and TNF-α as the read-out. Compounds of the invention were evaluated against a positive control for their ability to inhibit LPS-induced IL-1β and TNF-α as an overall evaluation of relative potency and modulation of target pathways (Table 6).
In the bovine whole blood in vitro screening assay the inhibition of TNFα as induced by stimulation by lipopolysaccharide (LPS) and as measured by half the maximal inhibitory concentration (IC50) is recognized as the primary biomarker of immunomodulation potency upon pretreatment with the compounds of the invention. IL-1β is a mediator of the inflammation response and is involved in a number of cellular activities including proliferation, differentiation and apoptosis. IL-1β is also released upon cellular stress or cytotoxicity or upon TLR stimulation. In the bovine whole blood assay the stimulation of IL-1β release upon increasing concentration of test compound is seen as a potential cellular toxicity signal as induced by the test compound. In order to estimate a therapeutic index from the in vitro assay a differential between the TNFα IC50 (immunomodulation potency) versus the perceived cellular toxicity concentration (IL-1β release or overstimulation) was utilized.

[2] = system: IL-1β; assay: as above; type: cell-based; conditions: overstimulation of IL-1β, LPS-stimulated bovine whole blood
Method: as §1, with “The effect of multiple cytokines was not easily quantified using single cell types. Therefore,” for “Therefore,”
In order to correlate RNA sequencing data to cytokine changes the whole blood assay was utilized. […] The enhancement result represents an overall stimulation of cytokine levels due to cellular stress or potential toxicity with increasing concentrations of the compound, representing a typical bell shape response curve for immunomodulatory activity.
In the bovine whole blood in vitro screening assay the inhibition of TNFα as induced by stimulation by lipopolysaccharide (LPS) and as measured by half the maximal inhibitory concentration (IC50) is recognized as the primary biomarker of immunomodulation potency upon pretreatment with the compounds of the invention.

[3] = system: BRD pathogens, M. haemolytica and P. multocida; assay: MIC screening panel of BRD pathogens (antibacterial / non-antibacterial); conditions: read-out: antibacterial / non-antibacterial (MIC for the BRD pathogens)

SMILES | IC50 ([1]; Bos taurus) | IL-1β OS of LPS [2] | MIC [3] | IC50 [1]
CCCNC[C@]1(O)[C@H](C)O[C@@H](O[C@H]2[C@H](C)[C@@H](O[C@@H]3O[C@H](C)C[C@H](N(C)C(=O)N(C)c4cnccn4)[C@H]3O)[C@](C)(O)C[C@@H](C)CN[C@H](C)[C@@H](O)[C@](C)(O)[C@@H](CC)OC(=O)[C@@H]2C)C[C@@]1(C)OC [Example H-46, 1-((2S,3R,4S,6R)-2-(((2R,3S,4R,5R,8R,10R,11R,12S,13S,14R)-2-ethyl-3,4,10-trihydroxy-13-(((2R,4R,5S,6S)-5-hydroxy-4-methoxy-4,6-dimethyl-5-((propylamino)methyl)tetrahydro-2H-pyran-2-yl)oxy)-3,5,8,10,12,14-hexamethyl-15-oxo-1-oxa-6-azacyclopentadecan-11-yl)oxy)-3-hydroxy-6-methyltetrahydro-2H-pyran-4-yl)-1,3-dimethyl-3-(pyrazin-2-yl)urea] | > 250 µM | 100 µM |  | 
CC[C@H]1OC(=O)[C@H](C)[C@@H](O[C@H]2C[C@@](C)(OC)[C@](O)(CN3Cc4nccnc4C3)[C@H](C)O2)[C@H](C)[C@@H](O[C@@H]2O[C@H](C)C[C@H](N(C)C(=O)N(C)c3ccccc3)[C@H]2O)[C@](C)(O)C[C@@H](C)CN[C@H](C)[C@@H](O)[C@]1(C)O [Example J-16, 1-((2S,3R,4S,6R)-2-(((2R,3S,4R,5R,8R,10R,11R,12S,13S,14R)-13-(((2R,4R,5S,6S)-5-((5,7-dihydro-6H-pyrrolo[3,4-b]pyrazin-6-yl)methyl)-5-hydroxy-4-methoxy-4,6-dimethyltetrahydro-2H-pyran-2-yl)oxy)-2-ethyl-3,4,10-trihydroxy-3,5,8,10,12,14-hexamethyl-15-oxo-1-oxa-6-azacyclopentadecan-11-yl)oxy)-3-hydroxy-6-methyltetrahydro-2H-pyran-4-yl)-1,3-dimethyl-3-phenylurea] | 60 µM | 40 µM | > 64 µg/mL | 
CCCNC[C@]1(O)[C@H](C)O[C@@H](O[C@H]2[C@H](C)[C@@H](O[C@@H]3O[C@H](C)C[C@H](N(C)C(=O)N4CCc5ccccc54)[C@H]3O)[C@](C)(O)C[C@@H](C)CN[C@H](C)[C@@H](O)[C@](C)(O)[C@@H](CC)OC(=O)[C@@H]2C)C[C@@]1(C)OC [Example I-3, N-((2S,3R,4S,6R)-2-(((2R,3S,4R,5R,8R,10R,11R,12S,13S,14R)-2-ethyl-3,4,10-trihydroxy-13-(((2R,4R,5S,6S)-5-hydroxy-4-methoxy-4,6-dimethyl-5-((propylamino)methyl)tetrahydro-2H-pyran-2-yl)oxy)-3,5,8,10,12,14-hexamethyl-15-oxo-1-oxa-6-azacyclopentadecan-11-yl)oxy)-3-hydroxy-6-methyltetrahydro-2H-pyran-4-yl)-N-methylindoline-1-carboxamide] | 40 µM | 32 µM |  | 
CC[C@H]1OC(=O)[C@H](C)[C@@H](O[C@H]2C[C@@](C)(OC)[C@](C)(O)[C@H](C)O2)[C@H](C)[C@@H](O[C@@H]2O[C@H](C)C[C@H](N(C)C(=O)N(C)c3ccccc3)[C@H]2O)[C@](C)(O)C[C@@H](C)CN[C@H](C)[C@@H](O)[C@]1(C)O [Example B-1a, 1-((2S,3R,4S,6R)-2-(((2R,3S,4R,5R,8R,10R,11R,12S,13S,4R)-2-ethyl-3,4,10-trihydroxy-13-(((2R,4R,5R,6S)-5-hydroxy-4-methoxy-4,5,6-trimethyltetrahydro-2H-pyran-2-yl)oxy)-3,5,8,10,12,14-hexamethyl-11S-oxo-1-oxa-6-azacyclopentadecan-11-yl)oxy)-3-hydroxy-6-methyltetrahydro-2H-pyran-4-yl)-1,3-dimethyl-3-phenylurea] |  | 40 µM |  | 32 µM

Source: patent publication US12295936B2, “Immunomodulating urea azalides” (Zoetis Services LLC, priority 2020, dated 2025)
